Measured values reported in patent US20240300946A1, “EGFR INHIBITORS” (Blueprint Medicines Corporation, priority 2021, published 2024).
Where two headings read alike, the source gives them in different places.

Assays:
[1] = target: T1, EGFR (L858R T790 M C797S) (Homo sapiens, UniProt P00533, C797S/L858R/T790M); test: Biochemical EGFR inhibition assay (Caliper mobility shift), LRTMCS mutant at 1 mM ATP; conditions: read-out: LRTMCS (PH) IC50 (nM) @ 1 mM ATP (Num)
T1 construct: purchased SignalChem E10-122VG
T1 sequence (P00533 25-1210 T790M/C797S/L858R): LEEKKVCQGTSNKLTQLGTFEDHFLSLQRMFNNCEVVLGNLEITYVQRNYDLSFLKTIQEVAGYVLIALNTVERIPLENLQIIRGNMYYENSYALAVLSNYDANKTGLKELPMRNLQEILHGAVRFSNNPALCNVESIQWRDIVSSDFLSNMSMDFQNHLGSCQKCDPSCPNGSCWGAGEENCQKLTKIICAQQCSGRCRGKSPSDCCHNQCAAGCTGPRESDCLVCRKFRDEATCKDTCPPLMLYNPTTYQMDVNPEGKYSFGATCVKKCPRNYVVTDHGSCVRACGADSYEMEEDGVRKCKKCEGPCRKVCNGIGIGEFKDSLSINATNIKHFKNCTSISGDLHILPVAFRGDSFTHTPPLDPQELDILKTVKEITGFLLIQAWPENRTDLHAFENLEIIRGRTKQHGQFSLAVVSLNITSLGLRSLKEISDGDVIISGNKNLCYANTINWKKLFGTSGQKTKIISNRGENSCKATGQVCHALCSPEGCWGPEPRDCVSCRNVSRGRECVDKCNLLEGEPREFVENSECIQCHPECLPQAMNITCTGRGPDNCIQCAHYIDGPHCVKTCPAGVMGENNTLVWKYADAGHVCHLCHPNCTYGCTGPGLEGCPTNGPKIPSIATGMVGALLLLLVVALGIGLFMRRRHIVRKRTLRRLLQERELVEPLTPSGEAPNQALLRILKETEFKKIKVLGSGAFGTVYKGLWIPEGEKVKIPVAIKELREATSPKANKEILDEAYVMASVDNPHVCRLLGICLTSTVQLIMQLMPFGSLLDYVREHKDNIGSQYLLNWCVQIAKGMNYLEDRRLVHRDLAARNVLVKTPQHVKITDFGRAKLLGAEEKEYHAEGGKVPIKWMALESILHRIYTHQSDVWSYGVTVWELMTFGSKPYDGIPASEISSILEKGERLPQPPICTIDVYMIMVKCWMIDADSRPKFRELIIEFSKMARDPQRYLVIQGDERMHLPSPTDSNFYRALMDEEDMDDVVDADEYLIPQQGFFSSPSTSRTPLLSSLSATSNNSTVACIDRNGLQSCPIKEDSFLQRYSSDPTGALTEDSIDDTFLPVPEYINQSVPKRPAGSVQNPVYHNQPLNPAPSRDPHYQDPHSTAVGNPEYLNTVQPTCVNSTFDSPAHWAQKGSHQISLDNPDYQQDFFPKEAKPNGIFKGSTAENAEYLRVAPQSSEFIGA
Experimental: Inhibitory effects of the compounds of the disclosure were measured in biochemical assays that measure the phosphorylation activity of EGFR enzyme phosphorylates 2.5 micromolar 5-FAM-[…]-CONH2 peptide substrate (FL-Peptide 22, PerkinElmer, 760366) in the presence of adenosine-5′-triphosphate (ATP) and varying concentrations of the test compound in 100 mM 2-[4-(2-hydroxyethyl)piperazin-1-yl]ethanesulfonic acid (HEPES), pH 7.5, 10 mM MgCl2, 0.015% Brij-35, 1 mM dithiothreitol (DTT), 1.0% dimethylsulfoxide (DMSO). Assays were performed at 1.0 mM ATP or at ATP Km of the EGFR enzymes. Reactions proceeded until between 10% to 20% total peptides were phosphorylated at room temperature (25° C.) and were terminated with 35 mM 2,2′,2″,2′″-(ethane-1,2-diyldinitrilo)tetraacetic acid (EDTA). Product was detected using the Caliper mobility shift detection method where the phosphorylated peptide (product) and substrate were electrophoretically separated and measured. Percent activity was plotted against log concentration of compound and points to generate an apparent IC50. The following enzyme forms of EGFR were examples that were used in these assays: • EGFR WT (SignalChem, E10-112G) • EGFR (L858R T790 M C797S) (SignalChem, E10-122VG) • EGFR (d746-750) T790 M C797S (SignalChem, E10-122UG) • EGFR L858R (SignalChem, E10-122BG) • EGFR (d746-750) (SignalChem, E10-122JG)

[2] = test system: phosphorylation of EGFR in NCI-H1975 cell line that harbors the EGFR L858R T790 M mutations; test: NCI-H1975 pEGFR AlphaLISA assay; format: cell-based; conditions: p-EGFR (Tyr1068), 4-5 hours incubation, read-out: Ext pEGFR H1975 GMean IC50 (nM) Protocol: @ Pharmaron AlphaLISA (Num)
Experimental: Inhibitory effects of the compounds of the disclosure were evaluated in cellular assays that measure level of intracellular phosphorylation of EGFR in NCI-H1975 cell line that harbors the EGFR L858R T790 M mutations (ATCC, CRL-5908) using AlphaLISA sureFire ultra p-EGFR (Tyr1068) assay kit (PerkinElmer, ALSU-PEGFR-A50K). The NCI-H1975 cells were seeded at 12.5K/well in 22 μL into 384 well opti plate (PerkinElmer, 6007299) and adhering overnight at 37° C./5% CO2. On the next day, the test compounds and DMSO control were added into H1975 cell plate followed by incubation at 37° C./5% CO2 for 4-5 hours. The cells were then spin down in the 384-well plate and lysed with 10 μL of 1× AlphaLISA lysis buffer followed by shaking at 600 rpm for 10 minutes at room temperature. After that, 5 μL of an acceptor bead mix was added to each well followed by incubation at room temperature for 1.5-2 h in dark. Then 5 μL of a donor bead mix was added to each well followed by overnight incubation at room temperature in dark. On the next day, the plate was read at a compatible plate reader to obtain pEGFR signal. Percent of pEGFR inhibition was plotted against log concentration of compounds to generate IC50 values.

[3] = Homo sapiens, NCI-H1975, NCI-H1975 cells

Row | SMILES | IC50 [1] | IC50 [2, 3] | IC50 ([2]; NCI-H1975 cells)
1 | CC(C)c1ccc(N2CC(CS(C)(=O)=O)C2)c2cnc(Nc3ccnc([C@H]4C[C@@H]4C(F)F)n3)cc12 (single isomer, unassigned) [Example 16, N-(2-((1S,2S)-2-(difluoromethyl)cyclopropyl)pyrimidin-4-yl)-5-isopropyl-8-(3-((methylsulfonyl)methyl)azetidin-1-yl)isoquinolin-3-amine or N-(2-((1R,2R)-2-(difluoromethyl)cyclopropyl)pyrimidin-4-yl)-5-isopropyl-8-(3-((methylsulfonyl)methyl)azetidin-1-yl)isoquinolin-3-amine] | > 100 nM | > 50 nM | –
2 | CC(C)c1ccc(N2CC(CS(C)(=O)=O)C2)c2cnc(Nc3ccnc([C@H]4C[C@@H]4C(F)F)n3)cc12 (single isomer, unassigned) [Example 17, N-(2-((1S,2S)-2-(difluoromethyl)cyclopropyl)pyrimidin-4-yl)-5-isopropyl-8-(3-((methylsulfonyl)methyl)azetidin-1-yl)isoquinolin-3-amine or N-(2-((1R,2R)-2-(difluoromethyl)cyclopropyl)pyrimidin-4-yl)-5-isopropyl-8-(3-((methylsulfonyl)methyl)azetidin-1-yl)isoquinolin-3-amine] | > 100 nM | – | > 50 nM
3 | C[C@H](CO)c1ccc(N2CC(CS(C)(=O)=O)C2)c2cnc(Nc3ccnc(-c4cnn(C)c4)n3)cc12 (single isomer, unassigned) [Example 18, (S)-2-(3-((2-(1-methyl-1H-pyrazol-4-yl)pyrimidin-4-yl)amino)-8-(3-((methylsulfonyl)methyl)azetidin-1-yl)isoquinolin-5-yl)propan-1-ol or (R)-2-(3-((2-(1-methyl-1H-pyrazol-4-yl)pyrimidin-4-yl)amino)-8-(3-((methylsulfonyl)methyl)azetidin-1-yl)isoquinolin-5-yl)propan-1-ol] | ≤ 15 nM | > 50 nM | –
4 | C[C@H](CO)c1ccc(N2CC(CS(C)(=O)=O)C2)c2cnc(Nc3ccnc(-c4cnn(C)c4)n3)cc12 (single isomer, unassigned) [Example 19, (S)-2-(3-((2-(1-methyl-1H-pyrazol-4-yl)pyrimidin-4-yl)amino)-8-(3-((methylsulfonyl)methyl)azetidin-1-yl)isoquinolin-5-yl)propan-1-ol or (R)-2-(3-((2-(1-methyl-1H-pyrazol-4-yl)pyrimidin-4-yl)amino)-8-(3-((methylsulfonyl)methyl)azetidin-1-yl)isoquinolin-5-yl)propan-1-ol] | ≤ 15 nM | – | > 50 nM
5 | Cc1ncc(-c2nccc(Nc3cc4c(C(C)C)ccc(N5C[C@H](CS(C)(=O)=O)[C@H]5C)c4cn3)n2)s1 (single isomer, unassigned) [Example 20, 5-isopropyl-8-(2R,3S)-2-methyl-3-((methylsulfonyl)methyl)azetidin-1-yl)-N-(2-(2-methylthiazol-5-yl)pyrimidin-4-yl)isoquinolin-3-amine or 5-isopropyl-8-((2S,3R)-2-methyl-3-((methylsulfonyl)methyl)azetidin-1-yl)-N-(2-(2-methylthiazol-5-yl)pyrimidin-4-yl)isoquinolin-3-amine] | ≤ 15 nM | – | < 10 nM
6 | Cc1ncc(-c2nccc(Nc3cc4c(C(C)C)ccc(N5C[C@H](CS(C)(=O)=O)[C@H]5C)c4cn3)n2)s1 (single isomer, unassigned) [Example 21, 5-isopropyl-8-((2S,3S)-2-methyl-3-((methylsulfonyl)methyl)azetidin-1-yl)-N-(2-(2-methylthiazol-5-yl)pyrimidin-4-yl)isoquinolin-3-amine or 5-isopropyl-8-((2S,3R)-2-menthyl-3-((methylsulfonyl)methyl)azetidin-1-yl)-N-(2-(2-methylthiazol-5-yl)pyrimidin-4-yl)isoquinolin-3-amine] | > 100 nM | – | > 50 nM
7 | CC(C)c1ccc(N2C[C@H](CS(C)(=O)=O)[C@H]2C)c2cnc(Nc3ccnc(-c4cccnc4)n3)cc12 (single isomer, unassigned) [Example 22, 5-isopropyl-8-((2R,3S)-2-methyl-3-((methylsulfonyl)methyl)azetidin-1-yl)-N-(2-(pyridin-3-yl)pyrimidin-4-yl)isoquinolin-3-amine or 5-isopropyl-8-((2S,3R)-2 methyl-3-((methylsulfonyl)methyl)azetidin-1-yl)-N-(2-(pyridin-3-yl)pyridin-4-yl) isoquinolin-3-amine] | ≤ 15 nM | < 10 nM | –
8 | CC(C)c1ccc(N2C[C@H](CS(C)(=O)=O)[C@H]2C)c2cnc(Nc3ccnc(-c4cnn(C)c4)n3)cc12 (single isomer, unassigned) [Example 23, 5-isopropyl-N-(2-(1-methyl-1H-pyrazol-4-yl)pyrmidin-4-yl)-8-((2S,3S)-2-methyl-3-((methylsulfonyl)methy)azetidin-1-yl)isoquinolin-3-amine or 5-isopropyl-N-(2-(1-methyl-1H-pyrazol-4-yl)pyrimidin-4-yl)-8-((2S,3R)-2-methyl-3-((methylsulfonyl)methyl)azetidin-1-yl)isoquinolin-3-amine] | ≤ 15 nM | 10 to 20 nM | –
9 | CC(C)c1cnc(N2CC(CS(C)(=O)=O)C2)c2cnc(Nc3ccnc([C@]4(C)C[C@@H](O)C4)n3)cc12 (single isomer, unassigned) [Example 24, (1r,3r)-3-(4-((5-isopropyl-8-(3-((methylsulfonyl)methyl)azetidin-1-yl)-2,7-naphthyridin-3-yl)amino)pyrimidin-2-yl)-3-methylcyclobutan-1-ol or (1s,3s)-3-(4-((5-isopropyl-8-(3-((methylsulfonyl)methyl)azetidin-1-yl)-2,7-naphthyridin-3-yl)amino)pyrimidin-2-yl)-3-methylcyclobutan-1-ol] | 30 to 100 nM | > 50 nM | –
10 | CC(C)c1cnc(N2CC(CS(C)(=O)=O)C2)c2cnc(Nc3ccnc([C@]4(C)C[C@@H](O)C4)n3)cc12 (single isomer, unassigned) [Example 25, (1r,3r)-3-(4-((5-isopropyl-8-(3-((methylsulfonyl)methyl)azetidin-1-yl)-2,7-naphthyridin-3-yl)amino)pyrimidin-2-yl)-3-methylcyclobutan-1-ol or (1s,3s)-3-(4-((5-isopropyl-8-(3-((methylsulfonyl)methyl)azetidin-1-yl)-2,7-naphthyridin-3-yl)amino)pyrimidin-2-yl)-3-methylcyclobutan-1-ol] | > 100 nM | – | > 50 nM
11 | Cc1ncc(-c2nccc(Nc3cc4c(C(C)C)cnc(N5CC(CS(C)(=O)=O)C5)c4cn3)n2)s1 [Example 1, 5-isopropyl-8-(3-((methylsulfonyl)methyl)azetidin-1-yl)-N-(2-(2-methylthiazol-5-yl)pyrimidin-4-yl)-2,7-naphthyridin-3-amine] | ≤ 15 nM | 10 to 20 nM | –
12 | CC(C)c1cnc(N2CC(CS(C)(=O)=O)C2)c2cnc(Nc3ccnc(-c4cnn(C)c4)n3)cc12 [Example 2, 5-isopropyl-N-(2-(1-methyl-1H-pyrazol-4-yl)pyrimidin-4-yl)-8-(3-((methylsulfonyl)methyl)azetidin-1-yl)-2,7-naphthyridin-3-amine] | ≤ 15 nM | 10 to 20 nM | –
13 | CC(C)c1cnc(N2CC(CS(C)(=O)=O)C2)c2cnc(Nc3ccnc(C4(C)CC(=O)C4)n3)cc12 [Example 3, 3-(4-((5-isopropyl-8-(3-((methylsulfonyl)methyl)azetidin-1-yl)-2,7-naphthyridin-3-yl)amino)pyrimidin-2-yl)-3-methylcyclobutan-1-one] | > 100 nM | > 50 nM | –
14 | CC(C)c1cnc(N2CC(CS(C)(=O)=O)C2)c2cnc(Nc3ccnc(C45CC(CO)(C4)C5)n3)cc12 [Example 4, (3-(4-((5-isopropyl-8-(3-((methylsulfonyl)methyl)azetidin-1-yl)-2,7-naphthyridin-3-yl)amino)pyrimidin-2-yl)bicyclo[1.1.1]pentan-1-yl)methanol] | 15 to 20 nM | > 50 nM | –
